Measured values as given in patent publication US20220370448A1, “PHARMACEUTICAL COMPOSITION COMPRISING THIRD GENERATION SMALL MOLECULE EGFR INHIBITOR AND PREPARATION METHOD THEREOF” (Jiangsu Hansoh Pharmaceutical Group Co., LTD., priority 2018, published 2022).

Key:
Permeability = assay type: in vitro ADME
Solubility = assay type: physicochemical; conditions: dependence on pH
Text: The pharmaceutical composition prepared according to the present invention has a good and uniform dissolution in different dissolution media.

EGFR T790M mutant = EGFR T790M mutant (Homo sapiens, UniProt P00533, T790M); conditions: background statement, WO2016054987; cited from earlier work
wild-type EGFR = wild-type EGFR (Homo sapiens, UniProt P00533); conditions: background statement, WO2016054987; cited from earlier work
wild-type EGFR, sequence (P00533 25-1210): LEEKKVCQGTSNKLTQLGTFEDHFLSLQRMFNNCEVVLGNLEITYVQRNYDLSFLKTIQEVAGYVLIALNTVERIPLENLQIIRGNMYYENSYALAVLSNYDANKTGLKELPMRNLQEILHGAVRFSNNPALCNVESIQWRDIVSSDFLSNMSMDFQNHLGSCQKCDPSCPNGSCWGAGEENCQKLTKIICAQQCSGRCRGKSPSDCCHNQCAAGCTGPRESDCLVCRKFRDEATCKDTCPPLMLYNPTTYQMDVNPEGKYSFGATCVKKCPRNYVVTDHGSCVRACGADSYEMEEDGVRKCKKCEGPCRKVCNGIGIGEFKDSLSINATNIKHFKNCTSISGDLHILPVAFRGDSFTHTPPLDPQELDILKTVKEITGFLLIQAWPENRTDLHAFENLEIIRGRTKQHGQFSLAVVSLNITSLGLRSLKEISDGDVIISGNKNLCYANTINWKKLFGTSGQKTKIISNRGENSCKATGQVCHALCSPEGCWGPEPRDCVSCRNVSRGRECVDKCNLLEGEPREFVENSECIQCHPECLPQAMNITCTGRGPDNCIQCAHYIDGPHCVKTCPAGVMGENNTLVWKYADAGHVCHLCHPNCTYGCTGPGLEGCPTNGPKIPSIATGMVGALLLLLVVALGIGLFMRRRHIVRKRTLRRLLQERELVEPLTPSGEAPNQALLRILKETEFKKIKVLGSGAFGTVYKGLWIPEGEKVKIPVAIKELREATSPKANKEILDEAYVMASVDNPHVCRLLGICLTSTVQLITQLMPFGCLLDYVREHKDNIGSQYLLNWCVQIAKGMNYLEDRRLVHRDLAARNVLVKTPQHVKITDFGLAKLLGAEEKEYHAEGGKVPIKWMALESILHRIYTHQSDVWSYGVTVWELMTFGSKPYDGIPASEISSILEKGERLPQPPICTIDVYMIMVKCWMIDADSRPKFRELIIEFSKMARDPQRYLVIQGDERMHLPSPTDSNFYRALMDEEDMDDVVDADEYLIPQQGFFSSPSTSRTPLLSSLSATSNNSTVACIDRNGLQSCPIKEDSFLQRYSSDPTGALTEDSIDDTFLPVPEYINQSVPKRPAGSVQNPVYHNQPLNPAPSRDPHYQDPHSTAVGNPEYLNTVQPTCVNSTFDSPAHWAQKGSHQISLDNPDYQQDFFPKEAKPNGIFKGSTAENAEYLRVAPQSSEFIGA

EGFR T790M mutant, sequence (P00533 25-1210 T790M): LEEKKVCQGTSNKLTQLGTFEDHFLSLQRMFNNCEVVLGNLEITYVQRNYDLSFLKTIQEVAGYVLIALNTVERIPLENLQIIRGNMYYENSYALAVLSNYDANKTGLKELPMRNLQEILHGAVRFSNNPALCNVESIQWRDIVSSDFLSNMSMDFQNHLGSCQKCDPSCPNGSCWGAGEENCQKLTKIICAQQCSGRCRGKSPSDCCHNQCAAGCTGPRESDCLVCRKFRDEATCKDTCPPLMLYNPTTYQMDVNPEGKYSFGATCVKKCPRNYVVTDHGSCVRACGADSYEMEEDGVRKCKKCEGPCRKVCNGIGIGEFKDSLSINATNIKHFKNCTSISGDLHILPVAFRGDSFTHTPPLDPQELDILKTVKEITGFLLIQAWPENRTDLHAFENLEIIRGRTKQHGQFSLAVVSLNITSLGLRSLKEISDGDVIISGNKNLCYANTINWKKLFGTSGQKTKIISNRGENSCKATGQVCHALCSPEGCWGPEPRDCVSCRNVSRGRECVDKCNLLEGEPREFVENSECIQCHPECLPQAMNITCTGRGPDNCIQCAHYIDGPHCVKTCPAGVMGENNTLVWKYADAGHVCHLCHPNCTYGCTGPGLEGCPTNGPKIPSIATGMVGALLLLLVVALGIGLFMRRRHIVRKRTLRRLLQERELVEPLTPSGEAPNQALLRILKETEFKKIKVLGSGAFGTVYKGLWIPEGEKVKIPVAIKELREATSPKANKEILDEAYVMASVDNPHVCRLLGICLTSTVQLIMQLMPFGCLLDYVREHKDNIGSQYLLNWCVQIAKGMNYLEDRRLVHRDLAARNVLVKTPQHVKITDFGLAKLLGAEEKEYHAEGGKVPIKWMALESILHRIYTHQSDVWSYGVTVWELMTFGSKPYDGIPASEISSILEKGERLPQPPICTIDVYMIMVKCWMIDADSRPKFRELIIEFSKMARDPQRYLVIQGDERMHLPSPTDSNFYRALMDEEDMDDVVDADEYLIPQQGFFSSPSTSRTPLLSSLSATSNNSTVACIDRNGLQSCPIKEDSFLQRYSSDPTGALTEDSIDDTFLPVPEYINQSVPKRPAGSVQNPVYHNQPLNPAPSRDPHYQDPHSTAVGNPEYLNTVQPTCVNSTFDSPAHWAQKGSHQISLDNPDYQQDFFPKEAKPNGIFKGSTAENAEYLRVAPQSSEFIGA

permeability (Permeability): low permeability
solubility (Solubility): greatly affected by pH
SMILES: C=CC(=O)Nc1cc(Nc2nccc(-c3cn(C4CC4)c4ccccc34)n2)c(OC)cc1N(C)CCN(C)C [compound of formula I, N-(5-((4-(1-cyclopropyl-1H-indol-3-yl)pyrimidin-2-yl)amino)-2-((2-(dimethylamino)ethyl)(methyl)amino)-4-methoxyphenyl)acrylamide]
selectivity for inhibiting the EGFR T790M mutant (EGFR T790M mutant): high selectivity
activity on wild-type EGFR (wild-type EGFR): no or low activity
